# PMC5734728, “The JAK2/STAT3 inhibitor pacritinib effectively inhibits patient-derived GBM brain tumor initiating cells in vitro and when used in combination with temozolomide increases survival in an orthotopic xenograft model” (PLoS ONE, 2017)
# Key:
# BT50 = assay: alamarBlue BTIC viability assay, BT50; format: cell-based; conditions: Homo sapiens; BTIC line BT50, alamarBlue
# BT147 [1] = assay: alamarBlue BTIC viability assay, BT147; format: cell-based; conditions: Homo sapiens; BTIC line BT147, alamarBlue
# [2] = tested on: patient-derived GBM BTIC cultures; assay: neurosphere assay, all BTIC cultures tested; format: cell-based, human; conditions: 5 μM
# BT147 [3] = assay: neurosphere assay, BT147; format: cell-based, human; conditions: 3 μM
# p-STAT3 Y705 = assay: western blotting of activated STAT3 in BTICs; format: cell-based, human; conditions: for STAT3 activation (phosphorylation on tyrosine 705): 3 hours
# Description: (§1) BTIC spheres were enzymatically dissociated as described above and plated at 10^6 cells/2 mL of media. Cells were treated with vehicle (DMSO), pacritinib, TMZ, or a combination of pacritinib and TMZ and pelleted at select time points (3, 24, and 48 hours). For protein extraction, BTICs were lysed in modified radio-immunoprecipitation assay buffer supplemented with Complete Mini protease (Roche) and Halt phosphatase (Thermo Scientific) inhibitor cocktails. Protein concentrations were quantified using the BioRad protein assay; 20 μg of protein were loaded on 6% or 10% sodium dodecyl sulfate polyacrylamide gel electrophoresis (SDS PAGE) gels and transblotted to nitrocellulose membranes. Blots were stained with primary antibodies followed by horseradish peroxidase-conjugated secondary antibodies. Primary antibodies included p-STAT3 Y705 (1:1000; Cell Signaling Technology), STAT3 (1:1000; Cell Signaling Technology), p-Akt S473 (1:1000; Cell Signaling Technology), Akt (1:1000; Cell Signaling Technology), p-p44/42 MAPK (T202/Y204) (1:1000; Cell Signaling Technology), p44/42 MAPK (1:4000; Cell Signaling Technology), poly (ADP-ribose) polymerase (1:1000; Cell Signaling Technology), β-tubulin (1:1000; Cell Signaling Technology), and Actin (1:1000; Santa Cruz Biotechnology). Secondary antibodies included donkey anti-mouse (1:5000; Cell Signaling Technology), donkey anti-goat (1:5000; Millipore), and goat anti-rabbit (1:5000; Cell Signaling Technology). The blots were washed with tris-buffered saline and tween 20 (T-TBS) (50mM Tris, 150mM NaCl, 0.05% Tween 20, pH 7.6) and blocked with tris-buffered saline (TBS) before imaging. Bands were visualized with the SuperSignal West Pico chemiluminescent solution (Thermo Scientific) and an Amersham™ Imager 600 (General Electric).
# cleaved PARP = assay: western blotting of cleaved PARP in BTICs; format: cell-based, human; conditions: BT69, 24 hours
# Description: as §1, with “Protein concentrations were quantified using the BioRad protein assay; 20 μg of protein were loaded on 6% or 10% sodium dodecyl sulfate polyacrylamide gel electrophoresis (SDS PAGE) gels and transblotted to nitrocellulose membranes.” left out, “Primary antibodies included p-STAT3 Y705 (1:1000;” left out, “The blots were washed with tris-buffered saline and tween 20 (T-TBS) (50mM Tris, 150mM NaCl, 0.05% Tween 20, pH 7.6) and blocked with tris-buffered saline (TBS) before imaging.” left out
# [4] = human liver microsomal stability assay; format: in vitro ADME; conditions: human liver microsomes, 30-minute incubation
# Description: Working stocks were initially diluted to a concentration of 40 μM in 0.1 M potassium phosphate buffer before addition to the reaction vials. Pooled mouse (CD-1, male) or human (50 donors) liver microsomes were utilized at a final concentration of 0.5 mg/mL. Duplicate wells were used for each time point (0 and 30 minutes). Reactions were carried out at 37°C in a shaker, and the final concentration of DMSO was kept constant at 0.01%. The final volume for each reaction was 100 μL, which included the addition of an NADPH-Regeneration solution (NRS) mix. The NRS mix was comprised of glucose 6-phosphate dehydrogenase (0.4 U/mL), NADP+ (1.3 mM), MgCl2 (3.3 mM), and glucose 6-phosphate (3.3 mM) in assay mixtures. Upon completion of the 30-minute time point, reactions were terminated by the addition of 1.5-volumes (150 μL) of ice-cold acetonitrile with 0.5% formic acid and internal standard. Samples were then centrifuged at 4,000 rpm for 10 minutes to remove debris and precipitated protein. Approximately 150 μL of supernatant was subsequently transferred to a new 96-well microplate for LC-MS analysis. Narrow-window mass extraction LC-MS analysis was performed for all samples using a Waters Xevo quadrupole time-of-flight (QToF) mass spectrometer and an ACQUITY UPLC system, to determine relative peak areas of parent compound.
# [5] = tested on: patient-derived GBM BTIC cultures; assay: alamarBlue viability assay, panel of BTIC cultures
# Description: Accumax (eBioscience) was used to enzymatically dissociate BTIC spheres to single cells. Cells were seeded at 1000 cells per well in 96-well plates and treated with vehicle (DMSO) or drug, 24 hours after plating. BTIC viability was assessed after 7–14 days, once spheres were formed in control wells, by performing the alamarBlue™ (Invitrogen) assay per the manufacturer’s instructions. In brief, the alamar dye was added to each well and plates were read 6 hours later. Fluorescence intensity (excitation 540 nm; emission 590 nm) was measured on a SpectraMax M Series Multi-Mode Microplate reader. […] All experiments were performed in triplicate with a minimum of 3 wells per condition.
# BTICs were treated with suboptimal doses of 1 μM pacritinib (CTI Biopharma), 10 μg/mL TMZ (Sigma), or a combination of pacritinib and TMZ. […] Percent inhibition was determined by normalizing each well to the control well (0.1% DMSO).
compound,measurement,setting,value
C1=C/COCc2cc(ccc2OCCN2CCCC2)Nc2nccc(n2)-c2cccc(c2)COC/1 [pacritinib],IC50,BT50,0.62 µM
same,IC50,BT147 [1],0.99 µM
same,sphere formation,[2],completely inhibit sphere formation
same,sphere formation,BT147 [3],completely abolished sphere formation
same,p-STAT3 Y705,"p-STAT3 Y705; BT53, 48 hours, 1 μM pacritinib, 10 μg/mL TMZ or both",dramatically reduced phosphorylation
same,STAT3 activation (phosphorylation on tyrosine 705),"p-STAT3 Y705; BT53, low micromolar concentrations",decreased STAT3 activation
same,activated STAT3 (phosphorylation on tyrosine 705),"p-STAT3 Y705; BT69, 3 hours",decreased activated STAT3
same,STAT3 activation (phosphorylation on tyrosine 705),"p-STAT3 Y705; BT147, 1 μM",strongly decreased STAT3 activation
same,cell death (cleaved PARP levels),cleaved PARP,increase in cleaved PARP levels
same,stability rating,[4],Stable
same,"remaining at 0.5 h, 1 μM",[4]; 1 μM,76.2 ± 7.9%
same,IC50,"[5]; Homo sapiens, read-out: IC50 values for the eleven BTIC cultures tested",0.62 to 1.66 µM
same,viability reduced,"[5]; at 1.5 μM, in 10/11 BTIC cultures tested",50%
